# Laboratory results published in PubChem BioAssay (NCI).
#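 Cells were grown in 96-well plates and exposed to each compound for 48 hours at five concentrations; endpoints were interpolated linearly between bracketing concentrations, or set to the highest concentration if not reached. Here, GI50 denotes the concentration required for 50% inhibition of growth. TGI: concentration producing complete growth inhibition.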
# Tests used:
# Test in all cases: DTP human tumour cell line panel, 48 h
# [1] = system: LOX IMVI melanoma
# [2] = system: SK-MEL-2 melanoma
# [3] = system: HCC-2998 colon
# [4] = system: CAKI-1 renal
# [5] = system: HCT-116 colon
# [6] = system: KM12 colon
# [7] = system: SW-620 colon
# [8] = system: HL-60(TB) leukemia
# [9] = system: OVCAR-5 ovarian
# [10] = system: SF-539 CNS
# [11] = system: DU-145 prostate
# [12] = system: K-562 leukemia
# [13] = system: EKVX NSCLC
# [14] = system: MALME-3M melanoma
# [15] = system: UO-31 renal
# [16] = system: HCT-15 colon
# [17] = system: MDA-MB-435
# [18] = system: NCI/ADR-RES ovarian
# [19] = system: OVCAR-4 ovarian
# [20] = system: OVCAR-3 ovarian
# [21] = system: OVCAR-8 ovarian
# [22] = system: MDA-MB-468 breast
# [23] = system: UACC-257 melanoma
# [24] = system: SK-MEL-28 melanoma
# [25] = system: NCI-H23 lung
# [26] = system: SK-OV-3 ovarian
# [27] = system: T-47D breast
# [28] = system: A498 renal
# [29] = system: HT29 colon
# [30] = system: SF-268 CNS
# [31] = system: IGROV1 ovarian
# [32] = system: A549 NSCLC
# [33] = system: PC-3 prostate
# [34] = system: SNB-19 CNS
# [35] = system: NCI-H226 lung
# [36] = system: SF-295 CNS
# [37] = system: RXF 393 renal
# [38] = system: CCRF-CEM leukemia
# [39] = system: ACHN renal
# [40] = system: SNB-75 CNS
# [41] = system: SN12C renal
# [42] = system: HS 578T breast
# [43] = system: MCF7 breast
# [44] = system: RPMI-8226 leukemia
# [45] = system: BT-549 breast
# [46] = system: NCI-H522 lung
# [47] = system: HOP-92 NSCLC
# [48] = system: 786-0 renal
# [49] = system: SR leukemia
# [50] = system: MOLT-4 leukemia
# [51] = system: NCI-H460 lung
# [52] = system: SK-MEL-5 melanoma
# [53] = system: TK-10 renal
# [54] = system: MDA-MB-231 breast
# [55] = system: HOP-62 NSCLC
# [56] = system: M14 melanoma
# [57] = system: U251 CNS
# [58] = system: UACC-62 melanoma
# [59] = system: COLO 205 colon
compound,measurement,setting,value
N#Cc1c(NC(=O)c2ccc(C(F)(F)F)cc2C(F)(F)F)sc2c1CCC(=O)C2,GI50,[1],0.369 µM
same,TGI,[1],2.17 µM
same,GI50,[2],2.23 µM
same,TGI,[2],4.55 µM
same,GI50,[3],1.66 µM
same,TGI,[3],5.6 µM
same,GI50,[4],0.61 µM
same,TGI,[4],2.12 µM
same,GI50,[5],0.345 µM
same,TGI,[5],6.64 µM
same,GI50,[6],0.468 µM
same,TGI,[6],2.33 µM
same,GI50,[7],0.363 µM
same,TGI,[7],1.61 µM
same,GI50,[8],0.235 µM
same,TGI,[8],3.27 µM
same,GI50,[9],1.04 µM
same,TGI,[9],2.67 µM
same,GI50,[10],0.316 µM
same,TGI,[10],1.15 µM
same,GI50,[11],3.72 µM
same,TGI,[11],14.9 µM
same,GI50,[12],0.275 µM
same,TGI,[12],> 40.2 µM
same,GI50,[13],1.65 µM
same,TGI,[13],7.84 µM
same,GI50,[14],0.369 µM
same,TGI,[14],1.45 µM
same,GI50,[15],0.339 µM
same,TGI,[15],1.31 µM
same,GI50,[16],0.335 µM
same,TGI,[16],1.39 µM
same,GI50,[17],0.888 µM
same,TGI,[17],2.98 µM
same,GI50,[18],0.623 µM
same,TGI,[18],7.14 µM
same,GI50,[19],0.507 µM
same,TGI,[19],1.88 µM
same,GI50,[20],0.36 µM
same,TGI,[20],1.37 µM
same,GI50,[21],0.569 µM
same,TGI,[21],16.5 µM
same,GI50,[22],0.565 µM
same,TGI,[22],1.82 µM
same,GI50,[23],1.5 µM
same,TGI,[23],3.63 µM
same,GI50,[24],0.613 µM
same,TGI,[24],1.9 µM
same,GI50,[25],0.431 µM
same,TGI,[25],2.28 µM
same,GI50,[26],2.66 µM
same,TGI,[26],7.23 µM
same,GI50,[27],0.358 µM
same,TGI,[27],2.96 µM
same,GI50,[28],13 µM
same,TGI,[28],28.1 µM
same,GI50,[29],0.542 µM
same,TGI,[29],2.95 µM
same,GI50,[30],2.82 µM
same,TGI,[30],13.2 µM
same,GI50,[31],0.894 µM
same,TGI,[31],5.52 µM
same,GI50,[32],3.29 µM
same,TGI,[32],30 µM
same,GI50,[33],0.249 µM
same,TGI,[33],2.36 µM
same,GI50,[34],3.69 µM
same,TGI,[34],14.1 µM
same,GI50,[35],2.24 µM
same,TGI,[35],6.81 µM
same,GI50,[36],1.99 µM
same,TGI,[36],6.4 µM
same,GI50,[37],0.293 µM
same,TGI,[37],1.27 µM
same,GI50,[38],0.308 µM
same,TGI,[38],3.2 µM
same,GI50,[39],0.331 µM
same,TGI,[39],1.18 µM
same,GI50,[40],1.46 µM
same,TGI,[40],4.9 µM
same,GI50,[41],0.675 µM
same,TGI,[41],11.1 µM
same,GI50,[42],0.999 µM
same,TGI,[42],8.55 µM
same,GI50,[43],0.442 µM
same,TGI,[43],10.8 µM
same,GI50,[44],0.209 µM
same,TGI,[44],4.11 µM
same,GI50,[45],0.309 µM
same,TGI,[45],1.11 µM
same,GI50,[46],0.169 µM
same,TGI,[46],0.686 µM
same,GI50,[47],0.234 µM
same,TGI,[47],0.77 µM
same,GI50,[48],0.442 µM
same,TGI,[48],4.08 µM
same,GI50,[49],0.303 µM
same,TGI,[49],> 100 µM
same,GI50,[50],0.386 µM
same,TGI,[50],7.21 µM
same,GI50,[51],3.13 µM
same,TGI,[51],10.9 µM
same,GI50,[52],0.804 µM
same,TGI,[52],2.08 µM
same,GI50,[53],0.367 µM
same,TGI,[53],2.19 µM
same,GI50,[54],0.769 µM
same,TGI,[54],2.39 µM
same,GI50,[55],3.45 µM
same,TGI,[55],14 µM
same,GI50,[56],0.901 µM
same,TGI,[56],2.84 µM
same,GI50,[57],0.8 µM
same,TGI,[57],13.2 µM
same,GI50,[58],0.501 µM
same,TGI,[58],1.87 µM
same,GI50,[59],1.31 µM
same,TGI,[59],2.72 µM
Cc1ccc(-c2cc(-c3cc4ccccc4nc3Cl)[nH]c(=O)n2)cc1,GI50,[1],8.43 µM
same,TGI,[1],23.9 µM
same,GI50,[2],14.4 µM
same,TGI,[2],30.6 µM
same,GI50,[3],15.3 µM
same,TGI,[3],29.4 µM
same,GI50,[4],11.9 µM
same,TGI,[4],26.5 µM
same,GI50,[5],3.31 µM
same,TGI,[5],14 µM
same,GI50,[6],7.63 µM
same,TGI,[6],24.8 µM
same,GI50,[7],13.8 µM
same,TGI,[7],34.4 µM
same,GI50,[8],1.89 µM
same,TGI,[8],14.6 µM
same,GI50,[9],16.9 µM
same,TGI,[9],32.5 µM
same,GI50,[10],12.1 µM
same,TGI,[10],24.7 µM
same,GI50,[11],13.1 µM
same,TGI,[11],26.9 µM
same,GI50,[12],2.61 µM
same,TGI,[12],13.2 µM
same,GI50,[13],17.6 µM
same,TGI,[13],54.8 µM
same,GI50,[14],14.8 µM
same,TGI,[14],29.1 µM
same,GI50,[15],10.4 µM
same,TGI,[15],22.2 µM
same,GI50,[16],13 µM
same,TGI,[16],45.1 µM
same,GI50,[17],14.9 µM
same,TGI,[17],31.5 µM
same,GI50,[19],20.9 µM
same,TGI,[19],> 100 µM
same,GI50,[20],10.3 µM
same,TGI,[20],22.5 µM
same,GI50,[21],18.5 µM
same,TGI,[21],76.8 µM
same,GI50,[22],12.7 µM
same,TGI,[22],44.3 µM
same,GI50,[23],16.7 µM
same,TGI,[23],35.7 µM
same,GI50,[24],16.2 µM
same,TGI,[24],30.2 µM
same,GI50,[25],12.2 µM
same,TGI,[25],30.2 µM
same,GI50,[26],29.2 µM
same,TGI,[26],> 100 µM
same,GI50,[27],16.4 µM
same,TGI,[27],77.3 µM
same,GI50,[28],14.4 µM
same,TGI,[28],30.5 µM
same,GI50,[29],16 µM
same,TGI,[29],34.6 µM
same,GI50,[30],13.8 µM
same,TGI,[30],32.3 µM
same,GI50,[31],16 µM
same,TGI,[31],37.2 µM
same,GI50,[32],22.1 µM
same,TGI,[32],> 100 µM
same,GI50,[33],12 µM
same,TGI,[33],37 µM
same,GI50,[34],11.3 µM
same,TGI,[34],23.9 µM
same,GI50,[35],13.1 µM
same,TGI,[35],37.2 µM
same,GI50,[36],16.9 µM
same,TGI,[36],35.1 µM
same,GI50,[37],14.6 µM
same,TGI,[37],32.6 µM
same,GI50,[38],3.94 µM
same,TGI,[38],35.5 µM
same,GI50,[39],16.3 µM
same,TGI,[39],32.9 µM
same,GI50,[40],11.4 µM
same,TGI,[40],40.2 µM
same,GI50,[41],15.8 µM
same,TGI,[41],33 µM
same,GI50,[42],13 µM
same,TGI,[42],83.4 µM
same,GI50,[43],6.08 µM
same,TGI,[43],22.4 µM
same,GI50,[44],3.17 µM
same,TGI,[44],17.8 µM
same,GI50,[45],2.73 µM
same,TGI,[45],7.87 µM
same,GI50,[46],13.9 µM
same,TGI,[46],27.3 µM
same,GI50,[47],2.73 µM
same,TGI,[47],14.5 µM
same,GI50,[48],4.71 µM
same,TGI,[48],17.5 µM
same,GI50,[49],1.2 µM
same,TGI,[49],4.33 µM
same,GI50,[50],2.66 µM
same,TGI,[50],12.4 µM
same,GI50,[51],10 µM
same,TGI,[51],29.3 µM
same,GI50,[52],17.7 µM
same,TGI,[52],33.7 µM
same,GI50,[53],15.1 µM
same,TGI,[53],29.7 µM
same,GI50,[54],13.9 µM
same,TGI,[54],32.4 µM
same,GI50,[55],14.2 µM
same,TGI,[55],31.5 µM
same,GI50,[56],10.7 µM
same,TGI,[56],30.1 µM
same,GI50,[57],9.95 µM
same,TGI,[57],28.6 µM
same,GI50,[58],14 µM
same,TGI,[58],30 µM
same,GI50,[59],18 µM
same,TGI,[59],38.8 µM
